Reference: patent US12370162B1 (Rplushealth Limited, priority 2024, dated 2025)

Experiments:
[1] = system: A431, MCF-7, HeLa, HepG2, PC3, SKOV3, A549, U251, K562, and Caco-2 tumor cells; assay: Transwell migration assay with serine/glycine at different levels; assay type: cell-based; details: low serine level or low glycine level compared to high serine and glycine levels
[2] = system: A431, MCF-7, HeLa, HepG2, PC3, SKOV3, A549, U251, K562, and Caco-2 tumor cells; assay: MTT assay, tumor cell growth with serine/glycine at different levels; assay type: cell-based; details: low serine level or low glycine level compared to high serine and glycine levels; 48 hours culture

SMILES | migration capability (Transwell, metastasis %) [1] | cell growth (MTT, growth %) [2]
NCC(=O)O [glycine] | relatively high migration capability | grew slowly
N[C@@H](CO)C(=O)O [serine] | relatively high migration capability | grew slowly
